In article PMC5307958 (Scientific Reports, 2017):
Entries after “also recorded” stand apart in the source; their conditions may differ. Where a SMILES comes first, the peptide text is derived from it. Bridges are numbered along the chain shown (N, C = ends).

Tests used:
33 mammalian CNS targets = experiment: NIMH-PDSP competition binding panel, all targets
Description: (§1) LS3 was screened against a comprehensive panel of CNS-based proteins. Detailed protocols can be found within the US National Institute of Mental Health Psychoactive Drug Screening Program (NIMH PDSP) Assay Protocol Book (version II), by B. L. Roth, March 2013 (available at: http://pdsp.med.unc.edu/PDSP%20Protocols%20II%202013-03-28.pdf). […] Radioactivity in the presence of the LS3 (sample) was calculated with the following equation and expressed as a percent inhibition: % inhibition = (sample CPM – non-specific CPM)/Total CPM – non-specific CPM) × 100. Total binding was measured with no competing ligand. Non-specific binding was measured in the presence of reference compound. The % inhibition by LS3 was measured 4 times for each receptor.

[1] = test system: wild-type worms (N2 Bristol; BK channel ortholog SLO-1); experiment: C. elegans crawl speed, wild-type; format: in vivo, Caenorhabditis elegans; conditions: for crawl speed relative to controls: 30 min pre-incubation in puddle, age-matched day one adults, tracked 1 min, p < 0.001; for effect on crawl speed: wild type, 30 min, p<0.001, N=81-210, planned Student's t-tests
Description: Worms were cultivated at 20 °C as described with OP50 bacteria. Worms cultured on plates contaminated with fungi or other bacteria were excluded from this study. The reference wild-type strain was N2 Bristol. The reference slo-1(null) strain and background for transgenic strains was NM1968, harboring the previously characterized null allele, js379[29]. Multi-site gateway technology (Invitrogen) was used to construct plasmids. […] of the native slo-1 promoter (Pslo-1) and the traditional unc-54 UTR were used in combination with slo-1a(cDNA)::mCherry for a rescue construct. To test rescue with the human BK channel, an hslo(ZERO isoform, cDNA)::mCherry version was constructed. The slo-1(+) and hslo(+) plasmids were injected at a concentration of 20 and 10 ng/μl, respectively. The co-injection reporter PCFJ90 (1.25 ng/μl) was used to ensure proper transformation of the arrays. As such, JPS345 carried vxEx345, an extrachromosomal array containing [Pslo-1::slo-1::mCherry::unc-54UTR,Pmyo-2::mCherry::unc-54UTR]. JPS340 carried […], an extrachromosomal array containing [Pslo-1::hslo::mCherry::unc-54UTR,Pmyo-2::mCherry::unc-54UTR].
Age-matched day one adults were cleaned of bacteria by letting them crawl around on an unseeded plate and then moved into a puddle of NGM or peptide dissolved in NGM on another unseeded plate. NGM and peptide treatment groups were always run in tandem to control for behavioral variance. While much shorter than typical drug applications in C. elegans, brief application in liquid was chosen to avoid potential catabolic by-products of incubation on metabolically active E. coli. Higher LS3 concentrations were used to compensate. The puddle was refreshed 1–2 times as needed, but let to fully absorb into the agar by 30 minutes. After 30 minutes, crawl behavior was videoed (Flea2 camera, Point Grey Research, Canada; StreamPix 3, NorPix, Canada). Copper rings restricted movement to a proscribed area. The worms were tracked offline using custom macros (Image-Pro, MediaCybernetics, Rockville, MD) for 1 minute to obtain crawl speed (cm/min). Group means ± SEM for peptide-treated vs. vehicle-treated controls were compared at each concentration with Student’s t-tests. Rescue analysis was completed with two-way ANOVA (SigmaPlot, San Jose, CA). Crawl speeds for the peptide treated groups were also normalized to the performance of yoked controls. Normalized group means±SEM were compared vs. slo-1 null performance by two-way ANOVA.

5HT 1B = experiment: Competition radioligand binding (NIMH PDSP); conditions: radioligand GR127543, measured 4 times
Description: as §1

Sigma 2 = experiment: Competition radioligand binding (NIMH PDSP); conditions: radioligand DTG, measured 4 times
Description: as §1

Dopamine D1 = experiment: Competition radioligand binding (NIMH PDSP); conditions: radioligand SCH233930, measured 4 times
Description: as §1

BZP rat brain site = experiment: Competition radioligand binding (NIMH PDSP); conditions: radioligand Flunitrazepam, measured 4 times
Description: as §1

Adrenergic Alpha2A = experiment: Competition radioligand binding (NIMH PDSP); conditions: radioligand Clonidine, measured 4 times
Description: as §1

SERT = experiment: Competition radioligand binding (NIMH PDSP); conditions: radioligand Citalopram, measured 4 times
Description: as §1

NET = experiment: Competition radioligand binding (NIMH PDSP); conditions: radioligand Nisoxetine, measured 4 times
Description: as §1

5HT 1A = experiment: Competition radioligand binding (NIMH PDSP); conditions: radioligand 8-OH-DPAT, measured 4 times
Description: as §1

Adrenergic Alpha1A = experiment: Competition radioligand binding (NIMH PDSP); conditions: radioligand Prazosin, measured 4 times
Description: as §1

Dopamine D2 = experiment: Competition radioligand binding (NIMH PDSP); conditions: radioligand N-methylspiperone, measured 4 times
Description: as §1

5HT 2B = experiment: Competition radioligand binding (NIMH PDSP); conditions: radioligand LSD, measured 4 times
Description: as §1

Opioid DOR = experiment: Competition radioligand binding (NIMH PDSP); conditions: radioligand DADLE, measured 4 times
Description: as §1

Histamine H1 = experiment: Competition radioligand binding (NIMH PDSP); conditions: radioligand Pyrilamine, measured 4 times
Description: as §1

hERG = experiment: Competition radioligand binding (NIMH PDSP); conditions: human, probe Dofetilide (radioligand), measured 4 times, read-out: % inhibition by 10 µM LS3
Description: as §1

5HT 2A = experiment: Competition radioligand binding (NIMH PDSP); conditions: radioligand Ketanserin, measured 4 times
Description: as §1

Histamine H3 = experiment: Competition radioligand binding (NIMH PDSP); conditions: radioligand α-methylhistamine, measured 4 times
Description: as §1

GABAA = experiment: Competition radioligand binding (NIMH PDSP); conditions: radioligand Muscimol, measured 4 times
Description: as §1

Opioid MOR = experiment: Competition radioligand binding (NIMH PDSP); conditions: radioligand DAMGO, measured 4 times
Description: as §1

[2] = biological target: T1, human BKα channel (ZERO isoform) expressed in HEK293 cells (Homo sapiens, UniProt Q12791); experiment: Patch-clamp recording, inside-out patches, intracellular application; format: cell-based; conditions: 50 nM LS3 applied to intracellular (internal) side; n.s., N = 6
T1 construct: expressed in transfected cells; host or cells: HEK293 (ATCC), transient transfection with Lipofectamine 2000; EGFP cotransfected as a separate marker

mAcetylcholine M4 = experiment: Competition radioligand binding (NIMH PDSP); conditions: radioligand QNB, measured 4 times

T1 sequence (Q12791 1-1178 isoform Q12791-5): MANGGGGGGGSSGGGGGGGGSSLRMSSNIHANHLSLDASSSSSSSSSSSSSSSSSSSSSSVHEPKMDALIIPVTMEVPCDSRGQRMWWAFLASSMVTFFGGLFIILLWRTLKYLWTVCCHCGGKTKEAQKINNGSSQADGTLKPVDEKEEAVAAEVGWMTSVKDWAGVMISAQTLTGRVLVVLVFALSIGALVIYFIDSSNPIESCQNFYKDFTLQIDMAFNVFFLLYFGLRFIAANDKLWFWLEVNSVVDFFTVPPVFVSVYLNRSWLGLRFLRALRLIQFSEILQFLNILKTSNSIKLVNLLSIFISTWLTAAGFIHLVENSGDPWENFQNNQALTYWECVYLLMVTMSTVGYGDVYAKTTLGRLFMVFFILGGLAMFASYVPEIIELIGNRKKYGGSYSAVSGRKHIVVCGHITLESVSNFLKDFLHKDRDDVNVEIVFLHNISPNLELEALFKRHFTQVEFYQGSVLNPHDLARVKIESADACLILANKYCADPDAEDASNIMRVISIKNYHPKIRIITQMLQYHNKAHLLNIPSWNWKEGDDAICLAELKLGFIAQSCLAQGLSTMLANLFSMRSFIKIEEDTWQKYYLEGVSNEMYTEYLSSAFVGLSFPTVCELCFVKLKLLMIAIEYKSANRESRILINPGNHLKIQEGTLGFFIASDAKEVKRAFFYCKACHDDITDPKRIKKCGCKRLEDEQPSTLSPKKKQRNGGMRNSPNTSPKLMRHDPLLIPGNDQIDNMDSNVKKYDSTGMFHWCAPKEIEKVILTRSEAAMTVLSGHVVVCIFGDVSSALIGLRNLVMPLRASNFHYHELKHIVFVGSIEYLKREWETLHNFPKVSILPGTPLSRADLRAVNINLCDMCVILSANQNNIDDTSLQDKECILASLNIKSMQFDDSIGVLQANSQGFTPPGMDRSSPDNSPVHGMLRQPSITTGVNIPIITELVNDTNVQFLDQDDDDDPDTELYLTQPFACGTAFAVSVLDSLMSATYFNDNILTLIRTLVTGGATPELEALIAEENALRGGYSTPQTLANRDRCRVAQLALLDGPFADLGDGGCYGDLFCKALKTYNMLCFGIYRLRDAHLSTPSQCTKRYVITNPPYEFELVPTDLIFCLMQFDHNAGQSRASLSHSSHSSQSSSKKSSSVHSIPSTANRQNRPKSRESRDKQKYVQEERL

With `CC(C)C[C@@H]1NC(=O)CNC(=O)[C@H](CCCNC(=N)N)NC(=O)[C@H](CCCNC(=N)N)NC(=O)[C@@H](N)CSSC[C@@H](C(=O)O)NC(=O)[C@H](C(C)C)NC(=O)[C@H](CCC(N)=O)NC(=O)[C@H](C(C)C)NC1=O` [LS3] (H-CRRGLVQVC-OH; disulfide 1-9; N-terminus and C-terminus assumed) the “interaction with known ligand binding sites on 33 mammalian CNS targets” value (33 mammalian CNS targets; 10 microM LS3) was “does not have high affinity interactions”, the “inhibition of radioligand binding” value (33 mammalian CNS targets; 10 microM LS3, all 33 targets, printed 'substantially less than 50%', each measured 4 times) was “less than 50%” and the Ki (33 mammalian CNS targets; inferred from less than 50% inhibition at 10 microM LS3, array of CNS targets) was > 10 µM. The “crawl speed relative to controls” value ([1]; 250 μM LS3 in NGM) was ~ 85%, the “crawl speed relative to controls” value ([1]; 750 μM LS3 in NGM) was ~ 70% and the “effect on crawl speed” value ([1]; 75 µM LS3 vs. vehicle) was “reduced”. The “effect on crawl speed” value ([1]; 250 µM LS3 vs. vehicle) was “reduced”, the “effect on crawl speed” value ([1]; 750 µM LS3 vs. vehicle) was “reduced” and the “effect on crawl speed / locomotion” value ([1]; wild-type, LS3 in NGM, 30 min bath, WT vs. slo-1(null) at 250 and 750 μM: p < 0.05 and p < 0.001, N = 139–372) was “reduced crawl speed; also recorded: slowed locomotion in a concentration-dependent manner”. The “% inhibition by 10 µM LS3” value (5HT 1B) was 2.8%, the “% inhibition by 10 µM LS3” value (Sigma 2) was 24.3% and the “% inhibition by 10 µM LS3” value (Dopamine D1) was 15.7%. For the same molecule, the “% inhibition by 10 µM LS3” value (BZP rat brain site) was 5.1%, the “% inhibition by 10 µM LS3” value (Adrenergic Alpha2A) was 3.2% and the “% inhibition by 10 µM LS3” value (SERT) was 0.1%. The “% inhibition by 10 µM LS3” value (NET) was 6.7%, the “% inhibition by 10 µM LS3” value (5HT 1A) was 11.4% and the “% inhibition by 10 µM LS3” value (Adrenergic Alpha1A) was 11.3%. For the same molecule, the “% inhibition by 10 µM LS3” value (Dopamine D2) was 20.9%, the “% inhibition by 10 µM LS3” value (5HT 2B) was 3.2% and the “% inhibition by 10 µM LS3” value (Opioid DOR) was 1.9%. For the same molecule, the “% inhibition by 10 µM LS3” value (Histamine H1) was 14.8%, the inhibition at 10 µM (hERG) was 21.2% and the “% inhibition by 10 µM LS3” value (5HT 2A) was 16.2%. For the same molecule, the “% inhibition by 10 µM LS3” value (Histamine H3) was 5.1%, the “% inhibition by 10 µM LS3” value (GABAA) was 19.3% and the “% inhibition by 10 µM LS3” value (Opioid MOR) was 2.2%. For the same molecule, the “effect on Po (post vs. pre peptide)” value [2] was “did not reduce Po; also recorded: Only when applied to the external side did LS3 significantly reduce Po” and the “% inhibition by 10 µM LS3” value (mAcetylcholine M4) was 6.8%.
